Laboratory results published in PubChem BioAssay AID256 (DTP/NCI, 2004).
Several values for one entry are separate records, joined by “and”; a condition that tells them apart may be missing. Identical values can stand only once. Inconclusive results and toxic doses are left out.

Tested on: CD2F1 mice, L1210 leukemia ip, survival T/C
Assay: NCI In Vivo Anticancer Drug Screen. Data for tumor model L1210 Leukemia (intraperitoneal) in CD2F1 (CDF1) mice
Details: higher = longer survival
In short: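 Activity against a transplanted murine tumor was judged by comparing the compound group with a vehicle group. The outcome in the treated animals was divided by that in the controls.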

[1] = endpoint: mean survival time, dose: 100.0 mg/kg/injection, schedule: Q01DX009 (ip), vehicle: saline with Tween-80
[2] = endpoint: mean survival time, dose: 200.0 mg/kg/injection, schedule: Q01DX009 (ip), vehicle: saline with Tween-80
[3] = endpoint: mean survival time, dose: 400.0 mg/kg/injection, schedule: Q01DX009 (ip), vehicle: saline with Tween-80
[4] = endpoint: mean survival time, dose: 100.0 mg/kg/injection, schedule: Q04DX003 (ip), vehicle: saline with Tween-80
[5] = endpoint: mean survival time, dose: 100.0 mg/kg/injection, schedule: Q04DX003 (ip), vehicle: saline
[6] = endpoint: mean survival time, dose: 100.0 mg/kg/injection, schedule: Q01DX001 (ip), vehicle: saline
[7] = endpoint: mean survival time, dose: 200.0 mg/kg/injection, schedule: Q01DX001 (ip), vehicle: saline
[8] = endpoint: mean survival time, dose: 100.0 mg/kg/injection, schedule: Q04DX002 (ip), vehicle: saline with Tween-80
[9] = endpoint: mean survival time, dose: 200.0 mg/kg/injection, schedule: Q04DX002 (ip), vehicle: saline with Tween-80
[10] = endpoint: mean survival time, dose: 400.0 mg/kg/injection, schedule: Q04DX002 (ip), vehicle: saline with Tween-80
[11] = endpoint: mean survival time, dose: 200.0 mg/kg/injection, schedule: Q04DX003 (ip), vehicle: saline with Tween-80
[12] = endpoint: mean survival time, dose: 400.0 mg/kg/injection, schedule: Q04DX003 (ip), vehicle: saline with Tween-80
[13] = endpoint: mean survival time, dose: 50.0 mg/kg/injection, schedule: Q01DX009 (ip), vehicle: saline with Tween-80

CC(C)c1nc(-c2ccccc2)c(-c2ccccc2)[nH]1
T/C [1]: 103 % of control
T/C [2]: 94 % of control
T/C [3]: 100 % of control

Cc1oc2ccc(NS(=O)(=O)c3ccccc3)cc2c1C(=O)O
T/C [4]: 97 % of control

O=NN1CCOC1=NC1CCCCC1
T/C (endpoint: mean survival time, dose: 3.12 mg/kg/injection, schedule: Q01DX001 (ip), vehicle: distilled water + Tween-80): 97 % of control
T/C (endpoint: mean survival time, dose: 6.25 mg/kg/injection, schedule: Q01DX001 (ip), vehicle: distilled water + Tween-80): 94 % of control
T/C (endpoint: mean survival time, dose: 12.5 mg/kg/injection, schedule: Q01DX001 (ip), vehicle: distilled water + Tween-80): 98 % of control
T/C (endpoint: mean survival time, dose: 25.0 mg/kg/injection, schedule: Q01DX001 (ip), vehicle: distilled water + Tween-80): 97 % of control
T/C (endpoint: mean survival time, dose: 50.0 mg/kg/injection, schedule: Q01DX001 (ip), vehicle: distilled water + Tween-80): 100 % of control
T/C (endpoint: mean survival time, dose: 100.0 mg/kg/injection, schedule: Q01DX001 (ip), vehicle: distilled water + Tween-80): 100 % of control
T/C (endpoint: mean survival time, dose: 200.0 mg/kg/injection, schedule: Q01DX001 (ip), vehicle: distilled water + Tween-80): 110 % of control
T/C (endpoint: mean survival time, dose: 400.0 mg/kg/injection, schedule: Q01DX001 (ip), vehicle: distilled water + Tween-80): 110 % of control

CC(C)CCCC(C)C1CCC2C3CCC4CCCCC4(C)C3CCC12C (stereo not given)
T/C [1]: 95 % of control
T/C [2]: 94 % of control
T/C [3]: 105 % of control

CCc1ccc(O)cc1O
T/C (endpoint: mean survival time, dose: 25.0 mg/kg/injection, schedule: Q04DX003 (ip), vehicle: saline): 97 % of control
T/C (endpoint: mean survival time, dose: 50.0 mg/kg/injection, schedule: Q04DX003 (ip), vehicle: saline): 102 % of control
T/C [5]: 94 % of control and 96 % of control

Cn1c(=O)c2c(ncn2CN2CCN(Cn3cnc4c3c(=O)n(C)c(=O)n4C)CC2)n(C)c1=O
T/C [6]: 94 % of control
T/C [7]: 97 % of control

CCCCCCCCCCC(CCCCCCCCCC)Cc1ccccc1
T/C [6]: 98 % of control
T/C [7]: 98 % of control
T/C (endpoint: mean survival time, dose: 400.0 mg/kg/injection, schedule: Q01DX001 (ip), vehicle: saline): 93 % of control

CS(=O)(=O)CS(=O)(=O)OCCF
T/C (endpoint: median survival time, dose: 3.12 mg/kg/injection, schedule: Q01DX009 (ip), vehicle: saline): 112 % of control
T/C (endpoint: median survival time, dose: 3.13 mg/kg/injection, schedule: Q01DX009 (ip), vehicle: saline): 119 % of control
T/C (endpoint: median survival time, dose: 12.5 mg/kg/injection, schedule: Q01DX009 (ip), vehicle: saline): 179 % of control and 189 % of control
T/C (endpoint: median survival time, dose: 25.0 mg/kg/injection, schedule: Q01DX009 (ip), vehicle: saline): 182 % of control and 349 % of control

O=P1(N(CCCl)CCCl)NCC2(O1)C1CC3CC(C1)CC2C3 (stereo not given)
T/C (endpoint: mean survival time, dose: 15.6 mg/kg/injection, schedule: Q01DX001 (ip), vehicle: distilled water + Tween-80): 101 % of control
T/C (endpoint: mean survival time, dose: 31.3 mg/kg/injection, schedule: Q01DX001 (ip), vehicle: distilled water + Tween-80): 96 % of control
T/C (endpoint: mean survival time, dose: 62.5 mg/kg/injection, schedule: Q01DX001 (ip), vehicle: distilled water + Tween-80): 101 % of control
T/C (endpoint: mean survival time, dose: 125.0 mg/kg/injection, schedule: Q01DX001 (ip), vehicle: distilled water + Tween-80): 96 % of control
T/C (endpoint: mean survival time, dose: 250.0 mg/kg/injection, schedule: Q01DX001 (ip), vehicle: distilled water + Tween-80): 96 % of control
T/C (endpoint: mean survival time, dose: 500.0 mg/kg/injection, schedule: Q01DX001 (ip), vehicle: distilled water + Tween-80): 91 % of control

O=C1C(=O)c2ccccc2C(O)=C1CCCc1ccc(OCc2ccccc2)cc1
T/C [5]: 86 % of control
T/C (endpoint: mean survival time, dose: 200.0 mg/kg/injection, schedule: Q04DX003 (ip), vehicle: saline): 88 % of control

Nc1ncnc2c1ncn2C1OC(CO)C2[O][Sn]([c]3ccccc3)([c]3ccccc3)[O]C21 (stereo not given)
T/C (endpoint: mean survival time, dose: 1.56 mg/kg/injection, schedule: Q01DX005 (ip), vehicle: other): 107 % of control
T/C (endpoint: mean survival time, dose: 3.13 mg/kg/injection, schedule: Q01DX005 (ip), vehicle: other): 105 % of control
T/C (endpoint: mean survival time, dose: 6.25 mg/kg/injection, schedule: Q01DX005 (ip), vehicle: other): 100 % of control
T/C (endpoint: mean survival time, dose: 12.5 mg/kg/injection, schedule: Q01DX005 (ip), vehicle: other): 90 % of control and 107 % of control

CC(C)c1ccc2c(c1)CCC(C(Cl)Cl)C2(C)C (stereo not given)
T/C [8]: 95 % of control
T/C [9]: 111 % of control
T/C [10]: 100 % of control

NCCC(=O)O
T/C [1]: 98 % of control
T/C [4]: 89 % of control
T/C [2]: 97 % of control
T/C [11]: 104 % of control
T/C [3]: 97 % of control
T/C [12]: 98 % of control

CCN(C(=O)Nc1cccc(Cl)c1)c1ccccc1C
T/C [1]: 91 % of control
T/C [2]: 97 % of control
T/C [3]: 97 % of control

CCCCCCCCCCCCNC(=O)C[n+]1cccc(C(=O)Nc2ccccc2)c1
T/C (endpoint: mean survival time, dose: 6.25 mg/kg/injection, schedule: Q01DX009 (ip), vehicle: saline with Tween-80): 97 % of control
T/C (endpoint: mean survival time, dose: 6.25 mg/kg/injection, schedule: Q04DX003 (ip), vehicle: saline with Tween-80): 106 % of control
T/C (endpoint: mean survival time, dose: 12.5 mg/kg/injection, schedule: Q01DX009 (ip), vehicle: saline with Tween-80): 97 % of control
T/C (endpoint: mean survival time, dose: 12.5 mg/kg/injection, schedule: Q04DX003 (ip), vehicle: saline with Tween-80): 100 % of control
T/C (endpoint: mean survival time, dose: 25.0 mg/kg/injection, schedule: Q04DX003 (ip), vehicle: saline with Tween-80): 106 % of control

COC(=O)C1(C)CCCC2(C)c3cc(OC)ccc3C=CC12 (stereo not given)
T/C [1]: 104 % of control
T/C [2]: 106 % of control
T/C [3]: 103 % of control

CCCCCCCCCSCCS
T/C [8]: 96 % of control
T/C [9]: 89 % of control
T/C [10]: 100 % of control

CCCC(=O)O.CCCC(=O)O.CCCC(=O)O.CCCC(=O)O.[Rh].[Rh]
T/C (endpoint: mean survival time, dose: 0.03 mg/kg/injection, schedule: Q01DX009 (ip), vehicle: saline + alcohol): 100 % of control and 104 % of control
T/C (endpoint: mean survival time, dose: 0.06 mg/kg/injection, schedule: Q01DX009 (ip), vehicle: saline + alcohol): 93 % of control and 104 % of control
T/C (endpoint: mean survival time, dose: 0.12 mg/kg/injection, schedule: Q01DX009 (ip), vehicle: saline + alcohol): 96 % of control and 110 % of control
T/C (endpoint: mean survival time, dose: 0.25 mg/kg/injection, schedule: Q01DX009 (ip), vehicle: saline + alcohol): 100 % of control and 104 % of control
T/C (endpoint: mean survival time, dose: 0.5 mg/kg/injection, schedule: Q01DX009 (ip), vehicle: saline + alcohol): 100 % of control and 112 % of control
T/C (endpoint: mean survival time, dose: 1.0 mg/kg/injection, schedule: Q01DX009 (ip), vehicle: saline + alcohol): 102 % of control and 110 % of control

Cc1ccc(NCC(O)C(O)C(O)CO)cc1C (stereo not given)
T/C [8]: 106 % of control
T/C [9]: 103 % of control

Cc1cc(NC(C)CN(C)C)nc(/N=C(\N)Nc2ccc(Cl)c(Cl)c2)n1 (stereo not given)
T/C [4]: 96 % of control

COc1ccc(-c2cc(C(=O)O)c3cccc(C)c3n2)cc1
T/C [13]: 95 % of control
T/C [1]: 95 % of control
T/C [4]: 98 % of control
T/C [2]: 95 % of control
T/C [11]: 95 % of control

c1ccc(Cc2ccccc2-c2ccccc2)cc1
T/C (endpoint: mean survival time, dose: 100.0 mg/kg/injection, schedule: Q04DX003 (ip), vehicle: Klucel (hydroxypropylcellulose) (HPC)): 89 % of control
T/C (endpoint: mean survival time, dose: 200.0 mg/kg/injection, schedule: Q04DX003 (ip), vehicle: Klucel (hydroxypropylcellulose) (HPC)): 89 % of control
T/C (endpoint: mean survival time, dose: 400.0 mg/kg/injection, schedule: Q04DX003 (ip), vehicle: Klucel (hydroxypropylcellulose) (HPC)): 93 % of control

CCCCCCCN(CCCCCCC)CC(OC(C)=O)c1cc2ccccc2c2cc(Br)ccc12 (stereo not given)
T/C [4]: 98 % of control
T/C [11]: 101 % of control
T/C [12]: 104 % of control

OCC#CC1CCCCC1
T/C [13]: 107 % of control
T/C [1]: 107 % of control
T/C [2]: 101 % of control

Nc1ccc(-c2c(N)nc(Br)c3ccccc23)cc1
T/C (endpoint: mean survival time, dose: 50.0 mg/kg/injection, schedule: Q04DX003 (ip), vehicle: DMSO): 98 % of control
T/C (endpoint: mean survival time, dose: 100.0 mg/kg/injection, schedule: Q04DX003 (ip), vehicle: DMSO): 93 % of control
T/C (endpoint: mean survival time, dose: 200.0 mg/kg/injection, schedule: Q04DX003 (ip), vehicle: DMSO): 110 % of control
T/C (endpoint: mean survival time, dose: 400.0 mg/kg/injection, schedule: Q04DX003 (ip), vehicle: DMSO): 104 % of control

CC(=O)OCC1OC(OC2=C(CC=C(C)C)C(=O)c3ccccc3C2=O)C(OC(C)=O)C(OC(C)=O)C1OC(C)=O (stereo not given)
T/C (endpoint: mean survival time, dose: 6.25 mg/kg/injection, schedule: Q01DX009 (ip), vehicle: Klucel (hydroxypropylcellulose) (HPC)): 108 % of control
T/C (endpoint: mean survival time, dose: 12.5 mg/kg/injection, schedule: Q01DX009 (ip), vehicle: Klucel (hydroxypropylcellulose) (HPC)): 101 % of control and 108 % of control
T/C (endpoint: mean survival time, dose: 25.0 mg/kg/injection, schedule: Q01DX009 (ip), vehicle: Klucel (hydroxypropylcellulose) (HPC)): 101 % of control and 108 % of control
T/C (endpoint: mean survival time, dose: 50.0 mg/kg/injection, schedule: Q01DX009 (ip), vehicle: Klucel (hydroxypropylcellulose) (HPC)): 101 % of control
T/C (endpoint: mean survival time, dose: 100.0 mg/kg/injection, schedule: Q01DX009 (ip), vehicle: Klucel (hydroxypropylcellulose) (HPC)): 92 % of control and 102 % of control
T/C (endpoint: mean survival time, dose: 200.0 mg/kg/injection, schedule: Q01DX009 (ip), vehicle: Klucel (hydroxypropylcellulose) (HPC)): 89 % of control and 96 % of control
